Source: patent US20130122541A1, “MICROORGANISM PRODUCTION OF HIGH-VALUE CHEMICAL PRODUCTS, AND RELATED COMPOSITIONS, METHODS AND SYSTEMS” (The Regents of the University of Colorado, priority 2010, published 2013)
Values after ≈ are worked out from the molar mass of the structure shown. Where two headings read alike, the source gives them in different places.

Experiments:
[1] = system: Yeast strains (S288C background); assay: microbe, parasite or virus in culture; format: cell-based, Saccharomyces cerevisiae; settings: for MIC: Saccharomyces cerevisiae
Experimental: The minimum inhibitory concentration (MIC) was determined anaerobically in a 96 well-plate format. […] A 1% (v/v) inoculum was introduced into a 5 ml culture of SD minimal media without vitamins. After the cells reached mid-exponential phase, the culture was diluted to an OD600 of 0.200. The cells were further diluted 1:5 and a 10 μL aliquot was used to inoculate each well of a 96 well plate (˜10^4 cells per well) to total volume of 100 uL. […] Plates were incubated for 72 hours at 30 C. […] Plates were sealed in biobag anaerobic chambers that contained gas generators for anaerobic conditions and incubated for 72 hours at 30 C.

E. coli = assay: microbe, parasite or virus in culture; format: cell-based; settings: Escherichia coli, BW25113, read-out: MIC Assay Result (g/L 3-HP), aerobic
Experimental: For MIC evaluations, the final results are expressed in chemical agent concentrations determined by analysis of the stock solution by HPLC (i.e., see Subsection IIIb).
The minimum inhibitory concentration (MIC) was determined aerobically in a 96 well-plate format. […] Media supplements were added according to levels reported in the Supplements Table, where specified. Overnight cultures of strains were grown in triplicate in 5 mL LB (with antibiotic where appropriate). A 1% (v/v) inoculum was introduced into a 5 ml culture of M9 minimal media.

For `O=C(O)CCO` [3-HP, 3-hydroxypropionic acid], the “% Increase Over Control” value ([1]; S288C, SD media, supplements none (control), anaerobic) was 0%, the MIC ([1]; read-out: Average MIC Assay Result (g/L 3-HP), S288C, SD media, supplements none (control), anaerobic) was 38 g/L (≈ 422 mM) and the MIC ([1]; read-out: MIC Assay Result (g/L 3-HP), strain YX-022 (BY4722, pyes2.1-Aro3 pRS425-ILV6), SD, anaerobic) was 50 g/L (≈ 555 mM). It also gave an MIC ([1]; read-out: MIC Assay Result (g/L 3-HP), strain YX-CJR-001 (BY4709, pRS426 EV, control), SD, anaerobic) of 40 g/L (≈ 444 mM), an MIC ([1]; read-out: MIC Assay Result (g/L 3-HP), strain YX-CJR-005 (BY4709, pYes2.1-Met6), SD, anaerobic) of 60 g/L (≈ 666 mM) and an MIC ([1]; read-out: MIC Assay Result (g/L 3-HP), strain YX-CJR-007 (BY4709, pyes2.1-ILV6), SD, anaerobic) of 50 g/L (≈ 555 mM). It also gave an MIC ([1]; read-out: MIC Assay Result (g/L 3-HP), strain YX-CJR-008 (BY4709, pyes2.1-ILV1), SD, anaerobic) of 60 g/L (≈ 666 mM), an MIC ([1]; read-out: MIC Assay Result (g/L 3-HP), strain YX-CJR-010 (BY4709, pyes2.1-Thr1), SD, anaerobic) of 50 g/L (≈ 555 mM) and an MIC ([1]; read-out: MIC Assay Result (g/L 3-HP), strain YX-CJR-011 (BY4709, pyes2.1-Ser2), SD, anaerobic) of 50 g/L (≈ 555 mM). It also gave an MIC ([1]; read-out: MIC Assay Result (g/L 3-HP), strain YX-CJR-013 (BY4709, pyes2.1-ser3), SD, anaerobic) of 50 g/L (≈ 555 mM), an MIC ([1]; read-out: MIC Assay Result (g/L 3-HP), strain YX-CJR-014 (BY4709, pyes2.1-arg2), SD, anaerobic) of 50 g/L (≈ 555 mM) and an MIC ([1]; read-out: MIC Assay Result (g/L 3-HP), strain YX-CJR-015 (BY4709, pyes2.1-RNR1), SD, anaerobic) of 50 g/L (≈ 555 mM). The MIC ([1]; read-out: MIC Assay Result (g/L 3-HP), strain YX-CJR-016 (BY4709, pyes2.1-Aro3), SD, anaerobic) was 50 g/L (≈ 555 mM), the MIC ([1]; read-out: MIC Assay Result (g/L 3-HP), strain YX-CJR-018 (BY4709, pyes2.1-Tyr1), SD, anaerobic) was 50 g/L (≈ 555 mM) and the MIC ([1]; read-out: MIC Assay Result (g/L 3-HP), strain YX-CJR-021 (BY4709, pYes2.1-Trp1), SD, anaerobic) was 50 g/L (≈ 555 mM). For the same molecule, the “% Increase Over Control” value ([1]; strain YX-022 (pyes2.1-Aro3 pRS425-ILV6) vs control, anaerobic) was 25%, the “% Increase Over Control” value ([1]; strain YX-CJR-005 (pYes2.1-Met6) vs YX-CJR-001, anaerobic) was 50% and the “% Increase Over Control” value ([1]; strain YX-CJR-007 (pyes2.1-ILV6) vs YX-CJR-001, anaerobic) was 25%. For the same molecule, the “% Increase Over Control” value ([1]; strain YX-CJR-008 (pyes2.1-ILV1) vs YX-CJR-001, anaerobic) was 50%, the “% Increase Over Control” value ([1]; strain YX-CJR-010 (pyes2.1-Thr1) vs YX-CJR-001, anaerobic) was 25% and the “% Increase Over Control” value ([1]; strain YX-CJR-011 (pyes2.1-Ser2) vs YX-CJR-001, anaerobic) was 25%. For the same molecule, the “% Increase Over Control” value ([1]; strain YX-CJR-013 (pyes2.1-ser3) vs YX-CJR-001, anaerobic) was 25%, the “% Increase Over Control” value ([1]; strain YX-CJR-014 (pyes2.1-arg2) vs YX-CJR-001, anaerobic) was 25% and the “% Increase Over Control” value ([1]; strain YX-CJR-015 (pyes2.1-RNR1) vs YX-CJR-001, anaerobic) was 25%. For the same molecule, the “% Increase Over Control” value ([1]; strain YX-CJR-016 (pyes2.1-Aro3) vs YX-CJR-001, anaerobic) was 25%, the “% Increase Over Control” value ([1]; strain YX-CJR-018 (pyes2.1-Tyr1) vs YX-CJR-001, anaerobic) was 25% and the “% Increase Over Control” value ([1]; strain YX-CJR-021 (pYes2.1-Trp1) vs YX-CJR-001, anaerobic) was 25%. It also gave an MIC (E. coli; strain BW25113, no modifications (control), M9) of 27.5 g/L (≈ 305 mM), an MIC (E. coli; strain BX_00002.0: BW25113 wild type, pKK223-mcs1 (control), M9 + Amp (100 μg/mL)) of 20 g/L and an MIC (E. coli; strain BX_00003.0: BW25113 wild type, pBT-3 (control), M9 + Cm (20 μg/mL)) of 25 g/L. It also gave an MIC (E. coli; strain BX_00118.0: BW25113 wild type, pJ251 (control), M9 + Kan (20 μg/mL)) of 25 g/L, an MIC (E. coli; strain BX_00138.0: BW25113 wild type, pSmart-LC-Kan (control), M9 + Kan (20 μg/mL)) of 25 g/L and an MIC (E. coli; strain BX_00142.0: BW25113 wild type, pSmart-LC-kan, pBT-3 (control), M9 + Kan (20 μg/mL), Cm (20 μg/mL)) of 20 g/L. The MIC (E. coli; strain BX_00144.0: BW25113 wild type, pSmart-HC-Amp (control), M9 + Amp (100 μg/mL)) was 25 g/L, the MIC (E. coli; strain BX_00300.0: BW25113 wild type, pSmart-LC-Kan-tyrA-aroF, M9 + Kan 20 μg/mL) was 35 g/L and the MIC (E. coli; strain BX_00302.0: BW25113 wild type, pSmart-LC-Kan-folA-ORF, M9 + Kan 20 μg/mL) was 30 g/L. It also gave an MIC (E. coli; strain BX_00305.0: BW25113 wild type, pSmart-LC-Kan-pheA-C1, M9 + Kan 20 μg/mL) of 35 g/L, an MIC (E. coli; strain BX_00307.0: BW25113 wild type, pSmart-LC-Kan-tyrA-C1, M9 + Kan 20 μg/mL) of 35 g/L and an MIC (E. coli; strain BX_00309.0: BW25113 wild type, pSmart-LC-Kan-cynTS, M9 + Kan 20 μg/mL) of 35 g/L. For the same molecule, the MIC (E. coli; strain BX_00310.0: BW25113 wild type, pSmart-LC-Kan-glyA, M9 + Kan 20 μg/mL) was 35 g/L, the MIC (E. coli; strain BX_00312.0: BW25113 wild type, pSmart-LC-Kan-serA, M9 + Kan 20 μg/mL) was 35 g/L and the MIC (E. coli; strain BX_00313.0: BW25113 wild type, pSmart-LC-Kan-folD, M9 + Kan 20 μg/mL) was 30 g/L. For the same molecule, the MIC (E. coli; strain BX_00314.0: BW25113 wild type, pSmart-LC-Kan-aroE, M9 + Kan 20 μg/mL) was 35 g/L, the MIC (E. coli; strain BX_00315.0: BW25113 wild type, pSmart-LC-Kan-aroKB C1, M9 + Kan 20 μg/mL) was 35 g/L and the MIC (E. coli; strain BX_00317.0: BW25113 wild type, pSmart-LC-Kan-ilvA operon, M9 + Kan 20 μg/mL) was 35 g/L. The MIC (E. coli; strain BX_00318.0: BW25113 wild type, pSmart-LC-Kan-cysM, M9 + Kan 20 μg/mL) was 35 g/L, the MIC (E. coli; strain BX_00319.0: BW25113 wild type, pK223-aroH, M9 + Amp 100 μg/mL + 1 mM IPTG) was 30 g/L and the MIC (E. coli; strain BX_00322.0: BW25113 wild type, pJ61-speFED, M9 + Kan 20 μg/mL) was 35 g/L. It also gave an MIC (E. coli; strain BX_00323.0: BW25113 wild type, pJ61-aroG, M9 + Kan 20 μg/mL) of 35 g/L, an MIC (E. coli; strain BX_00324.0: BW25113 wild type, pJ61-thrA, M9 + Kan 20 μg/mL) of 35 g/L and an MIC (E. coli; strain BX_00325.0: BW25113 wild type, pJ61-asd, M9 + Kan 20 μg/mL) of 35 g/L. For the same molecule, the MIC (E. coli; strain BX_00326.0: BW25113 wild type, pJ61-ilvA, M9 + Kan 20 μg/mL) was 35 g/L, the MIC (E. coli; strain BX_00327.0: BW25113 wild type, pJ61-cysM, M9 + Kan 20 μg/mL) was 35 g/L and the MIC (E. coli; strain BX_00335.0: BW25113 wild type, pSmart-HC-Amp-prs, M9 + Amp 100 μg/mL) was 35 g/L. The MIC (E. coli; strain BX_00336.0: BW25113 wild type, pSmart-HC-Amp-nrdAB, M9 + Amp 100 μg/mL) was 35 g/L.
